Our source for the IC50 and melting point values is patent US6617340B1, “N-(substituted glycyl)-pyrrolidines, pharmaceutical compositions containing them and their use in inhibiting dipeptidyl peptidase-IV” (Novartis AG, priority 1999, dated 2003).

Series [1] addresses T1, DPP-IV activity in human plasma (Homo sapiens, UniProt P27487).
T1 construct: from tissue; host or cells: human plasma
The experiment in a line: human plasma DPP-IV assay. The format is biochemical. The following applies: substrate H-Glycine-Proline-AMC. As for the experimental part:
(§1) Briefly, five μl of plasma are added to 96-well flat-bottom mictotiter plates (Falcon), followed by the addition of 5 μl of 80 mM MgCl2 in incubation buffer (25 mM HEPES, 140 mM NaCl, 1% RIA-grade BSA, pH 7.8). After a 5 min. incubation at room temperature, the reaction is initiated by the addition of 10 μl of incubation buffer containing 0.1 mM substrate (H-Glycine-Proline-AMC; AMC is 7-amino-4-methylcoumarin). The plates are covered with aluminum foil (or kept in the dark) and incubated at room temperature for 20 min. […] A fluorescence-concentration curve of free AMC is generated using 0-50 μM solutions of AMC in assay buffer. The curve generated is linear and is used for interpolation of substrate consumption (catalytic activity in nmoles substrate cleaved/min). As with the previous assay, the potency of the test compounds as DPP-IV inhibitors, expressed as IC50, is calculated from 8-point, dose-response curves using a 4 parameter logistic function.

The target in series [2] is T2, DPP-IV activity from human colonic carcinoma cell extracts (Caco-2) (Homo sapiens, UniProt P27487).
T2 construct: Cell extract is prepared from cells solubilized in 10 mM Tris-HCl, 0.15 M NaCl, 0.04 t.i.u. aprotinin, 0.5% nonidet-P40; host or cells: Caco-2 (differentiated), NP-40 solubilized extract
Put plainly: Caco-2 DPP-IV Assay. The class given is biochemical. The note with it: Caco-2 cell extract, substrate H-Alanine-Proline-pNA. As for the experimental part:
The human colonic carcinoma cell line Caco-2 was obtained from the American Type Culture Collection (ATCC HTB 37). Differentiation of the cells to induce DPP-IV expression was accomplished as described by Reisher, et al. in an article entitled “Increased expression of . . . intestinal cell line Caco-2” in Proc. Natl. Acad. Sci., Vol. 90, pgs. […] Cell extract is prepared from cells solubilized in 10 mM Tris-HCl, 0.15 M NaCl, 0.04 t.i.u. aprotinin, 0.5% nonidet-P40, pH 8.0, which is centrifuged at 35,000 g for 30 min. at 4° C. to remove cell debris. The assay is conducted by adding 20 μg solubilized Caco-2 protein, diluted to a final volume of 125 μl in assay buffer (25 mM Tris-HCl pH 7.4, 140 mM NaCl, 10 mM KCl, 1% bovine serum albumin) to microtiter plate wells. The reaction is initiated by adding 25 μl of 1 mM substrate (H-Alanine-Proline-pNA; pNA is p-nitroaniline). The reaction is run at room temperature for 10 minutes after which time a 19 μl volume of 25% glacial acetic acid is added to stop the reaction. […] A standard curve of free p-nitroaniline is generated using 0-500 μM solutions of free pNA in assay buffer. The curve generated is linear and is used for interpolation of substrate consumption (catalytic activity in nmoles substrate cleaved/min). […] The potency of the test compounds as DPP-IV inhibitors, expressed as IC50, is calculated from 8-point, dose-response curves using a 4-parameter logistic function.

In series [3] the target is T3, DPP-IV activity in rat plasma (Rattus norvegicus, UniProt P14740).
T3 construct: from tissue; host or cells: rat plasma
Put plainly: rat plasma DPP-IV assay. The format is biochemical. The note with it: substrate H-Glycine-Proline-AMC. The protocol:
as §1

T3 sequence (P14740 37-767 limits assumed): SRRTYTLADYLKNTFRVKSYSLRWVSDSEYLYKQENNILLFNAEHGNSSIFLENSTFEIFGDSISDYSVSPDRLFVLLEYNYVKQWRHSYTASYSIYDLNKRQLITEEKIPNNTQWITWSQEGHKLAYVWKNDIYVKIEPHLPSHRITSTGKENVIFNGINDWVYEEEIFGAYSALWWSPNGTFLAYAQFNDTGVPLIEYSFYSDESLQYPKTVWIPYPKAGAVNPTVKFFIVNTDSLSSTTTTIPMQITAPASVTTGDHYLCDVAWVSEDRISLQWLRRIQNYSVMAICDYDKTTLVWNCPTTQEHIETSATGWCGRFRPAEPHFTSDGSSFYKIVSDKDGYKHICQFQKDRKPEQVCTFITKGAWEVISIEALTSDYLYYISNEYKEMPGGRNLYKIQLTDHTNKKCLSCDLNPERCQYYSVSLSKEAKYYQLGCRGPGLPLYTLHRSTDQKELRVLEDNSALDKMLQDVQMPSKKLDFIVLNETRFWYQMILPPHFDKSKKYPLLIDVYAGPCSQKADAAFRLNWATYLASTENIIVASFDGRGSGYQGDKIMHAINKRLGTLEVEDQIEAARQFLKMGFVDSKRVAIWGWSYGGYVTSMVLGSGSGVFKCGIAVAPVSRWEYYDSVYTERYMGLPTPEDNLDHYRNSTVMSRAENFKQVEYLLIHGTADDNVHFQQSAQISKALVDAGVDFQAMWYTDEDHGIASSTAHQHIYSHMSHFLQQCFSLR
T2 sequence (P27487 whole entry): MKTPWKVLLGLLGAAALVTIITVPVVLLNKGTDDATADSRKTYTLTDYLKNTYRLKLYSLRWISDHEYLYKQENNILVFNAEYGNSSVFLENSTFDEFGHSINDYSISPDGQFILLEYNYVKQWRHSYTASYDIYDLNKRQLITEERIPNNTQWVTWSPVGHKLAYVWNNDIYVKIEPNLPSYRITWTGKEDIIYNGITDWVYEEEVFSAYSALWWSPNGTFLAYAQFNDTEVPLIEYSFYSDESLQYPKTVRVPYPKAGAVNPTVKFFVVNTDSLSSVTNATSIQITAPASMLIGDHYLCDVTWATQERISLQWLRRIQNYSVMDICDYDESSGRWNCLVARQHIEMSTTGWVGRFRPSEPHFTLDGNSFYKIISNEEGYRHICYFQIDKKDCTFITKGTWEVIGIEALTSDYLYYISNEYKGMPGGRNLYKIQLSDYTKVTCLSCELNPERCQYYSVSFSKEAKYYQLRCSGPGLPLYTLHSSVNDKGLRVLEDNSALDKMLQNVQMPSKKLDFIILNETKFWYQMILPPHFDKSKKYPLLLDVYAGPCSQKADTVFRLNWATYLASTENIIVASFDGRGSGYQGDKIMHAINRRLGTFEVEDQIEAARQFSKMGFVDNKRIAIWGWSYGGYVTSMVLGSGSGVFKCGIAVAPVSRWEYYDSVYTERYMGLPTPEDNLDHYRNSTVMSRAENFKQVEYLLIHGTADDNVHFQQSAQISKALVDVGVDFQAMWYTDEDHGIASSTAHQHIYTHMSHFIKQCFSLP
T1 sequence (P27487 39-766 limits assumed): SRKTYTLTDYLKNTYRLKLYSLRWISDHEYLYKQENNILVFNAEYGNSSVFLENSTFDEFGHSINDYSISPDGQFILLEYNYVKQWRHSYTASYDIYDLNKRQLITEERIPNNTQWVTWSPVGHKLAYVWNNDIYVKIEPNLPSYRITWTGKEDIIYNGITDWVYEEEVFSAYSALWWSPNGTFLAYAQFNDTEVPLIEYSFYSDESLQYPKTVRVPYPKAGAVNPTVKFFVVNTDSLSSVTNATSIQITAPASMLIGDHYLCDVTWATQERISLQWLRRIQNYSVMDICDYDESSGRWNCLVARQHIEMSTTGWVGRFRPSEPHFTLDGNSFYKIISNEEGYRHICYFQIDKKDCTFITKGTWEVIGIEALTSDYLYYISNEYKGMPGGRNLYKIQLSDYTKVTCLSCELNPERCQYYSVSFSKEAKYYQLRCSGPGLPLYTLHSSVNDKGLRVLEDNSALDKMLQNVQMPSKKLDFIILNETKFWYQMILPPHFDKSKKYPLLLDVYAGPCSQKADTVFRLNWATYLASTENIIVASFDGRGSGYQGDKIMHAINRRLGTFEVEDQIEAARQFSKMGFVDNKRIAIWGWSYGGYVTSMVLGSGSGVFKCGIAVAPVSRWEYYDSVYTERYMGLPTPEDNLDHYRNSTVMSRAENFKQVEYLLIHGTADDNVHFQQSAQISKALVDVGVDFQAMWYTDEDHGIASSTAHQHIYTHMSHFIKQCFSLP

Broadly, the IC50 is the point on the concentration scale where inhibition reaches its midpoint. Take `O=C(CNCCNc1ccc(Cl)cn1)N1CCCC1` [Ex. 1, 1-[2-[(5-chloropyridin-2-yl)amino]ethylamino]acetylpyrrolidine]: the values for the IC50 in series [1], in series [2] and in series [3] were 15.9 µM, 5.5 µM and 9.3 µM, respectively.

The term melting point denotes the temperature, or range, at which the solid turns liquid. As to `N#Cc1ccc(NCCNCC(=O)N2CCCC2)nc1` [Ex. 2A, 1-[2-[(5-cyanopyridin-2-yl)amino]ethylamino]acetylpyrrolidine], the melting point was 122 to 123 °C. The concentration for half-maximal inhibition (IC50) in series [1] stood at 9.2 µM. In series [2], this compound displayed an IC50 of 2.6 µM. In series [3], this compound displayed an IC50 of 4.4 µM.

Regarding `O=C(CNCCNc1ncccn1)N1CCCC1` [Ex. 2B], the values for the IC50 in series [1], in series [2] and in series [3] were 45.8 µM, 27.5 µM and 28.4 µM, respectively.

Compound `O=C(CNC1(CO)CCCC1)N1CCCC1` [Ex. 2C, 1-[(1-hydroxymethylcyclopent-1-yl)amino]acetylpyrrolidine] registered a melting point of 72 to 74 °C. In addition, the IC50 in series [1] is 15.2 µM. The compound further showed an IC50 in series [2] of 9.7 µM. For the same compound, inhibition in series [3] was half-maximal at 7.8 µM (IC50).

Take `O=C(CNCCNc1ccccn1)N1CCCC1` [Ex. 2D, 1-[2-[(pyridin-2-yl)amino]ethylamino]acetylpyrrolidine]: the melting point fell in the range of 98 to 100 °C. The compound further had a half-inhibitory concentration (IC50) in series [1] of 9.4 µM. In addition, the half-maximal inhibitory concentration (IC50) in series [2] amounted to 6.4 µM. The compound also showed an IC50 in series [3] of 22.9 µM.
